Assay results taken from patent US5712251A, “Treatment method” (Roussel Uclaf, priority 1979, dated 1998).

Key:
[1] = tested on: testicular steroidogensis; assay: Inhibitory activity against testicular steroidogenesis in men in good health, single intranasal dose (Example 1); type: in vivo; conditions: for level of testosterone/steroids on the fourth day after administration: single intranasal dose of 500 μg, fourth day (until 6th day)
Description: The inhibitory activity of D Ser (Tbu)^6 or Gly^10 LH-RH ethylamide (described in German application Ser. No. 2,438,350) against testicular steroidogensis in men in good health was determined on men in good health aged 30 to 40 years. The said product was administered intranasally at a dose of 500 μg in a few drops of distilled water at 8 A.M. on the third day of the test. For 2 days prior to the treatment and for 6 days after the treatment, samples of blood were taken daily at 8 A.M., 3 P.M. and 10 P.M. On the day of administration of the LH-RH agonist, blood samples were taken at 11 A.M. and 6 P.M.
The seric concentrations of LH and FSH were measured by radioimmuno-logic dosages with double antibodies and the antibodies for measuring LH and FSH were furnished by the National Pituitary Agency of N.I.H. in Bethesda, Md. The seric concentrations of steroids was measured by radioimmuno-logic dosages in which one ml of serum was extracted with ether and the steroids were separated on a LH-20 column before measuring with radioimmuno-logic dosages. The radioimmuno-logic dosage results were determined by a program derived from model II of Rodbard et al [Second Karolinska Symposium on Research Methods in Reproductive Endocrinology, Diezfalusky Editer, Copenhague (1970), p. 79-103]. The statistical significance was determined by the "multiple level test" of Duncan-Kramer [Kramer, Biometrics, Vol 12 (1956), p. 307]. The results are shown in the graphs on sheet 1 of the Figures filed herewith.

ovarian steroidogenosis = assay: Inhibitory activity on ovarian steroidogenesis in women (Example 3); type: in vivo
Description: The study was conducted for 6 consecutive cycles consisting of 2 pretreatment cycles, 2 treatment cycles and 2 post-treatment cycles. […] Daily blood samples were taken between 4 and 6 P.M. to measure seric levels of LH, FSH, progesterone and estradiol which were determined by radioimmuno-logic tests with double antibodies. The antibodies to measure LH and FSH were furnished by the National Pituitary Agency of N.I.H. of Bethesda, Md.
Estradiol and progesterone were measured with highly specific antibodies developed against 7-(O-carboxymethyl)-oxime of estradiol and 12-(O-carboxymethyl)-oxime of progesterone, respectively [3H] 17β-estradiol and ^125 I-progesterone-12-[O-carboxymethyl)-oxime]used as tracers. The serum was extracted with benzene and the steroids were separated with a LH-20 column before the determination. The radioimmunological results were exploited by the program derived from model II of Rodbard and Lewald as in Example 1 and the statistical significance was measured by the multiple level test of Ducan-Kramer of Example 1. The results are shown in the graphs of sheets 3 to 5 of the Figures.

[2] = tested on: prostate and seminal vesicules; assay: Peptide in association with an antiandrogen: weight of prostate and seminal vesicles of rats (Example 4); type: in vivo, rats of the Sprague-Dawley strain; conditions: 100 or 500 μg peptide s.c. daily plus 5 mg product A twice daily, 14 days
Description: The effect of the administration of D Ser (Tbu)^6 of Gly^10 LH-RH ethylamide in association with an antiandrogen was determined on groups of 9 normal rats of the Sprague-Dawley strain weighing about 250 g. The rats received for 14 days a subcutaneous administration at 9 A.M. of D Ser (Tbu)^6 of Gly^10 LH-RH ethylamide at a dose of 20, 100 or 500 μg in physiological serum and at 9 A.M. and 4 P.M. doses of 1 or 5 mg of 5,5-dimethyl-3-[4-nitro-3-trifluoromethyl-phenyl]-2,4-imidazolidinedione (product A) in solution in sesame oil containing 5% of benzyl alcohol. One group of rats received only physiological serum and one group received only product A.
The animals were killed 24 hours after the last injection and the weight of the prostate and seminal vesicules of the rats were determined.

[3] = 3rd day following peptide administration, intranasal 500 μg

With `CCNC(=O)[C@@H]1CCCN1C(=O)[C@H](CCCNC(=N)N)NC(=O)[C@H](CC(C)C)NC(=O)[C@@H](COC(C)(C)C)NC(=O)[C@H](Cc1ccc(O)cc1)NC(=O)[C@H](CO)NC(=O)[C@H](Cc1c[nH]c2ccccc12)NC(=O)[C@H](Cc1c[nH]cn1)NC(=O)[C@@H]1CCC(=O)N1` [D Ser (Tbu)^6 of Gly^10 LH-RH ethylamide] the “concentration of 17-OH-progesterone relative to initial control values” [1, 3] was 40%, the “concentration of testosterone relative to initial control values” [1, 3] was 50% and the FSH plasmatic level ([1]; intranasal 500 μg, men) was “increase”. The LH plasmatic level ([1]; intranasal 500 μg, men) was “increase”, the “level of testosterone/steroids on the fourth day after administration” value ([1]; listed as D Ser (Tbu)^6 or Gly^10 LH-RH ethylamide) was “returned to normal” and the “level of testosterone/steroids on the fourth day after administration” value ([1]; listed as peptide) was “return to normal levels”. For the same compound, the “progesterone level in cycles of post-treatment, pretreatment cycles as base of 100%” value (ovarian steroidogenosis; 12 cycles, 6 women) was 99%, the “progesterone level in cycles of treatment, pretreatment cycles as base of 100%” value (ovarian steroidogenosis; 12 cycles, 6 women) was 46% and the “level of progesterone reduced as compared to the controls” value (ovarian steroidogenosis; review of 12 cycles (sheet 5)) was 46%. For the same compound, the “level of seric progesterone in the 2 cycles of post-treatment” value (ovarian steroidogenosis; sheet 4) was “return to normal”, the “reduction of seric level of progesterone as compared to controls, first treatment cycle” value (ovarian steroidogenosis; typical subject (sheet 3), 500 μg intranasal at 8 A.M. and 5 P.M. on one day between 4th and 9th day after LH peak) was 13% and the “reduction of seric level of progesterone as compared to controls, second treatment cycle” value (ovarian steroidogenosis; typical subject (sheet 3), same regimen) was 34%. The “weight of the prostate” value [2] was “Similar, but a little less marked” and the “weight of the seminal vesicules” value [2] was “approached the weight of the seminal vesicules of castrated rats”.
